Measurements as given in ChEMBL document CHEMBL4382286, “Nongenotoxic 3-Nitroimidazo[1,2-a]pyridines Are NTR1 Substrates That Display Potent in Vitro Antileishmanial Activity” (ACS Med Chem Lett, 2019).

Experiments:
[1] = Electrochemical behavior of the compound assessed as redox potential corrected toward normal hydrogen electrode by cyclic voltammetry
[2] = Toxicity in Swiss mouse assessed as effect on kidney at 1 mg/kg, ip administered for 5 days measured measured on day 7 to day 30 post last dose by HES staining based microscopic analysis; assay type: organism-based; conditions: in vivo, 120 h
[3] = system: Leishmania donovani; experiment: Antileishmanial activity against intracellular amastigote stage of Leishmania donovani infected in human THP1 cells after 120 hrs by giemsa staining based microscopic analysis; assay type: functional, organism-based; conditions: THP-1, 120 h
[4] = Mutagenicity in Salmonella typhimurium TA97a at 62.5 to 625 uM preincubated for 1 hr with S9 mix followed by addition of molten top agar and measured 48 hrs post dark incubation by Ames test; assay type: toxicity, subcellular; conditions: salmonella enterica subsp. enterica serovar typhimurium, s9, 48 h
[5] = system: Leishmania donovani; experiment: Selectivity ratio of IC50 for NTR2 in promastigote stage of Leishmania donovani MHOM/SD/62/1S-CL2D to IC50 for NTR1 in promastigote stage of Leishmania donovani MHOM/SD/62/1S-CL2D
[6] = Toxicity in Swiss mouse assessed as effect on muscles at 1 mg/kg, ip administered for 5 days measured measured on day 7 to day 30 post last dose by HES staining based microscopic analysis; assay type: organism-based; conditions: in vivo, 120 h
[7] = system: Leishmania infantum; experiment: Potency index, ratio of fexinidazole IC50 to test compound IC50 for Leishmania infantum axenic amastigotes; assay type: functional
[8] = Toxicity in Swiss mouse assessed as effect on brain at 1 mg/kg, ip administered for 5 days measured measured on day 7 to day 30 post last dose by HES staining based microscopic analysis; assay type: organism-based; conditions: in vivo, 120 h
[9] = Toxicity in Swiss mouse assessed as effect on lungs at 1 mg/kg, ip administered for 5 days measured measured on day 7 to day 30 post last dose by HES staining based microscopic analysis; assay type: organism-based; conditions: in vivo, 120 h
[10] = system: Trypanosoma cruzi; experiment: Antitrypanosomal activity against Trypanosoma cruzi MHOM/BR/78/Silvio cloneX10/7A epimastigotes measured after 4 days by resazurin dye based fluorescence assay; assay type: functional, organism-based; conditions: 96 h
[11] = system: Leishmania donovani; experiment: Antileishmanial activity against promastigote stage of Leishmania donovani MHOM/IN/00/DEVI after 72 hrs by MTT assay; assay type: functional, organism-based
[12] = Mutagenicity in Salmonella typhimurium TA98 at 62.5 to 625 uM preincubated for 1 hr with S9 mix followed by addition of molten top agar and measured 48 hrs post dark incubation by Ames test; assay type: toxicity, subcellular; conditions: salmonella enterica subsp. enterica serovar typhimurium, s9, 48 h
[13] = Substrate activity at NTR1 in promastigote stage of Leishmania donovani MHOM/SD/62/1S-CL2D assessed as inhibition of parasite growth after 72 hrs by resazurin dye based assay
[14] = Lipophilicity, log D of the compound at pH 7.4 by HPLC analysis; assay type: physicochemical; conditions: buffer
[15] = system: Leishmania donovani; experiment: Selectivity ratio of IC50 for wild type promastigote stage of Leishmania donovani MHOM/SD/62/1S-CL2D to IC50 for NTR1 in promastigote stage of Leishmania donovani MHOM/SD/62/1S-CL2D
[16] = Toxicity in Swiss mouse assessed as inflammation at injection site 10 mg/kg, ip administered for 5 days measured measured on day 7 to day 30 post last dose by HES staining based microscopic analysis; assay type: organism-based; conditions: in vivo, 120 h
[17] = Cytotoxicity against human HepG2 cells after 72 hrs by MTT assay; assay type: cell-based
[18] = Solubility of the compound in RPMI medium at >62.5 uM; assay type: physicochemical
[19] = Cytotoxicity against human THP1 cells after 72 hrs by MTT assay; assay type: cell-based; conditions: THP-1 cells
[20] = Mutagenicity in Salmonella typhimurium TA102 at 62.5 to 625 uM preincubated for 1 hr followed by addition of molten top agar and measured 48 hrs post dark incubation by Ames test; assay type: toxicity; conditions: salmonella enterica subsp. enterica serovar typhimurium
[21] = Mutagenicity in Salmonella typhimurium TA98 at 62.5 to 625 uM preincubated for 1 hr followed by addition of molten top agar and measured 48 hrs post dark incubation by Ames test; assay type: toxicity; conditions: salmonella enterica subsp. enterica serovar typhimurium
[22] = Toxicity in Swiss mouse assessed as effect on liver by measuring inflammatory cell infiltration at 10 mg/kg, ip administered for 5 days measured measured on day 7 to day 30 post last dose by HES staining based microscopic analysis; assay type: organism-based; conditions: in vivo, 120 h
[23] = Toxicity in Swiss mouse assessed as effect on spleen at 1 mg/kg, ip administered for 5 days measured measured on day 7 to day 30 post last dose by HES staining based microscopic analysis; assay type: organism-based; conditions: in vivo, 120 h
[24] = Toxicity in Swiss mouse assessed as effect on skin by measuring hypodermic lymph node at 10 mg/kg, ip administered for 5 days measured measured on day 7 to day 30 post last dose by HES staining based microscopic analysis; assay type: organism-based; conditions: in vivo, 120 h
[25] = Solubility of the compound in RPMI medium at 4 to 6 uM; assay type: physicochemical
[26] = Mutagenicity in Salmonella typhimurium TA97a at 62.5 to 625 uM preincubated for 1 hr followed by addition of molten top agar and measured 48 hrs post dark incubation by Ames test; assay type: toxicity; conditions: salmonella enterica subsp. enterica serovar typhimurium
[27] = system: Leishmania donovani; experiment: Antileishmanial activity against wild type promastigote stage of Leishmania donovani MHOM/SD/62/1S-CL2D after 72 hrs by resazurin dye based fluorescence assay; assay type: functional, organism-based
[28] = Drug metabolism in CD-1 mouse hepatic microsomes assessed as 6-chloro-8-(4-chlorophenylsulfinyl)-3-nitro-2-(phenylsulfonylmethyl)imidazo[1,2-a]pyridine formation in presence of NADPH by LC-MS/MS analysis; assay type: ADME, Liver, Microsome
[29] = Acute toxicity in Swiss mouse at 1 to 10 mg/kg, ip measured for 24 hrs; assay type: organism-based; conditions: in vivo
[30] = Selectivity index, ratio of CC50 for human HepG2 cells to IC50 for promastigote stage of Leishmania donovani MHOM/IN/00/DEVI; assay type: toxicity; conditions: read-out: Ratio CC50/IC50
[31] = Mutagenicity in Salmonella typhimurium TA102 at 62.5 to 625 uM preincubated for 1 hr with S9 mix followed by addition of molten top agar and measured 48 hrs post dark incubation by Ames test; assay type: toxicity, subcellular; conditions: salmonella enterica subsp. enterica serovar typhimurium, s9, 48 h
[32] = system: Leishmania donovani; experiment: Potency index, ratio of miltefosine IC50 to test compound IC50 for intracellular amastigote stage of Leishmania donovani infected in human THP1 cells; assay type: functional
[33] = Toxicity in Swiss mouse assessed as effect on adipose tissue at 1 mg/kg, ip administered for 5 days measured measured on day 7 to day 30 post last dose by HES staining based microscopic analysis; assay type: organism-based; conditions: in vivo, 120 h
[34] = system: Plasmodium falciparum; experiment: Antiplasmodial activity against chloroquine/proguanil/pyrimethamine-resistant synchronized stage of Plasmodium falciparum K1 after 72 hrs by SYBR green1 staining based spectrophotometric method; assay type: functional, organism-based; conditions: K1, 72 h
[35] = system: Trypanosoma brucei brucei; experiment: Antitrypanosomal activity against trypomastigote stage of Trypanosoma brucei brucei AnTat 1.9 assessed as decrease in parasite viability after 69 hrs by Alamar Blue assay; assay type: functional, organism-based; conditions: AnTat 1.9, 69 h
[36] = Half life in CD-1 mouse hepatic microsomes in presence of NADPH by LC-MS/MS analysis; assay type: ADME, Microsome; conditions: liver microsomes
[37] = Toxicity in Swiss mouse assessed as fibrosis at injection site 10 mg/kg, ip administered for 5 days measured measured on day 7 to day 30 post last dose by HES staining based microscopic analysis; assay type: organism-based; conditions: in vivo, 120 h
[38] = system: Leishmania major; experiment: Antileishmanial activity against intracellular amastigote stage of Leishmania major infected in human THP1 cells after 120 hrs by giemsa staining based microscopic analysis; assay type: functional, organism-based; conditions: THP-1, 120 h
[39] = system: Leishmania infantum; experiment: Antileishmanial activity against Leishmania infantum axenic amastigotes after 48 hrs by steady-glo luciferase reporter gene assay; assay type: functional, organism-based
[40] = Toxicity in Swiss mouse assessed as effect on liver at 1 mg/kg, ip administered for 5 days measured measured on day 7 to day 30 post last dose by HES staining based microscopic analysis; assay type: organism-based; conditions: in vivo, 120 h
[41] = Mutagenicity in Salmonella typhimurium TA100 at 62.5 to 625 uM preincubated for 1 hr followed by addition of molten top agar and measured 48 hrs post dark incubation by Ames test; assay type: toxicity; conditions: salmonella enterica subsp. enterica serovar typhimurium
[42] = system: Leishmania major; experiment: Antileishmanial activity against promastigote stage of Leishmania major MHOM/IL/81/Friedlin after 72 hrs by MTT assay; assay type: functional, organism-based
[43] = biological target: T1, Albumin (Homo sapiens, UniProt P02768); experiment: Binding affinity to human serum albumin after 4 hrs by LC-MS analysis; assay type: ADME; conditions: read-out: PB (converted)
[44] = biological target: T1, Albumin; experiment: Binding affinity to human serum albumin assessed as unbound fraction after 4 hrs by LC-MS analysis; assay type: ADME; conditions: isolated protein
[45] = Mutagenicity in Salmonella typhimurium TA100 at 62.5 to 625 uM preincubated for 1 hr with S9 mix followed by addition of molten top agar and measured 48 hrs post dark incubation by Ames test; assay type: toxicity, subcellular; conditions: salmonella enterica subsp. enterica serovar typhimurium, s9, 48 h
[46] = system: Trichomonas vaginalis; experiment: Antiprotozoal activity against Trichomonas vaginalis TVR87 measured after 48 hrs by trypan blue assay; assay type: functional, organism-based
[47] = Toxicity in Swiss mouse assessed as effect on heart at 1 mg/kg, ip administered for 5 days measured measured on day 7 to day 30 post last dose by HES staining based microscopic analysis; assay type: organism-based; conditions: in vivo, 120 h
[48] = Substrate activity at NTR2 in promastigote stage of Leishmania donovani MHOM/SD/62/1S-CL2D assessed as inhibition of parasite growth after 72 hrs by resazurin dye based assay
[49] = system: HepG2; experiment: Genotoxicity in human HepG2 cells at 1 to 20 uM after 2 to 72 hrs by comet assay; assay type: toxicity, cell-based; conditions: hepg2, 20 µM

T1 sequence (P02768 whole entry): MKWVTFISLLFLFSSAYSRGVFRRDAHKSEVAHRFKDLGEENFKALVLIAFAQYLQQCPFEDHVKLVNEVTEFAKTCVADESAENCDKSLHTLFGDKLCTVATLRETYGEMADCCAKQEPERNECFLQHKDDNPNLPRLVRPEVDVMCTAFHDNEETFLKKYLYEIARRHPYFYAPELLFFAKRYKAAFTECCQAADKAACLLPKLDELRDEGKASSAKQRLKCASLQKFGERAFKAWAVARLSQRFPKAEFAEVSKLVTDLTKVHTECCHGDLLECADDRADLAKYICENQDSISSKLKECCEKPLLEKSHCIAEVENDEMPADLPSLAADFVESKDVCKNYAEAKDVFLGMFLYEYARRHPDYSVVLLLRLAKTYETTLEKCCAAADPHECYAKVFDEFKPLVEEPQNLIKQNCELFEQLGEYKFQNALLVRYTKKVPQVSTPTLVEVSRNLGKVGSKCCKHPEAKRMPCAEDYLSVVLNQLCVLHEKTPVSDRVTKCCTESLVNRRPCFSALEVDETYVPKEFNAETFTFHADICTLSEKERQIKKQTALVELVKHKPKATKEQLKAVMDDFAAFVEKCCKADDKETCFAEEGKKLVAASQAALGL

O=[N+]([O-])c1c(CS(=O)(=O)c2ccccc2)nc2c(Sc3ccc(Cl)cc3)cc(Cl)cn12
Activity [1]: -0.63 V | Activity [2]: Non-Toxic | IC50 [3]: 1 to 1.3 µM | Activity [4]: Non-Toxic | Ratio IC50 [5]: 8 | Activity [6]: Non-Toxic | Ratio IC50 [7]: 2 | Activity [8]: Non-Toxic | Activity [9]: Non-Toxic | IC50 [10]: 2.2 µM | IC50 [11]: 1 µM | Activity [12]: Non-Toxic | IC50 [13]: 0.033 µM | logD [14]: 4.26 | Ratio IC50 [15]: 8 | Activity [16]: Non-Toxic | CC50 at 72 h [17]: > 100 µM | solubility [18]: Insoluble | CC50 at 72 h [19]: > 62.5 µM | Activity [20]: Non-Toxic | Activity [21]: Non-Toxic | Activity [22]: Non-Toxic | Activity [23]: Non-Toxic | Activity [24]: Non-Toxic | solubility [25]: Soluble | Activity [26]: Non-Toxic | IC50 [27]: 0.26 µM | Drug metabolism [28]: Metabolite_Detected | Activity [29]: Non-Toxic | selectivity ratio [30]: > 100 | Activity [31]: Non-Toxic | Ratio IC50 [32]: 3 | Activity [33]: Non-Toxic | IC50 [34]: 19 µM | IC50 [35]: 1.3 µM | half-life [36]: 3 min | Activity [37]: Non-Toxic | IC50 [38]: 2.1 µM | IC50 [39]: 1.7 µM | Activity [40]: Non-Toxic | Activity [41]: Non-Toxic | IC50 [42]: 1.3 µM | fraction unbound at 4 h [43]: 0.0005 | logFu [44]: -3.28 | Activity [45]: Non-Toxic | IC50 [46]: 4.6 to 5 µM | Activity [47]: Non-Toxic | IC50 [48]: 0.3 µM | Activity [49]: Non-Toxic
